Test results reported in patent US3962316A, “Carbamate” (priority 1972, dated 1976).

Tests used:
Assay type in all cases: in vivo
[1] = system: caterpillars of the cabbage moth (Plutella maculipennis); assay: Contact action and effect of ingested food on caterpillars of the cabbage moth (dipped cabbage leaves); conditions: for Mortality (in words): 0.1% by weight of ingredient in aqueous emulsion
Excerpt: Contact action and effect of ingested food on caterpillars of the cabbage moth (Plutella maculipennis). Young cabbage leaves are dipped for 3 seconds into aqueous emulsions of the active ingredients. After they have dried they are put into Petri dishes and caterpillars of the cabbage moth are placed on them.

[2] = system: oriental cockroaches (Blatta orientalis); assay: Contact with treated inner surfaces of 1 liter glass beakers, adult oriental cockroaches
Experimental: Adult oriental cockroaches (Blatta orientalis) are placed in 1 liter glass beakers whose inner surfaces have been treated with acetonic solutions of the active ingredients. The action is determined after 48 hours.

[3] = system: houseflies (Musca domestica); conditions: after 4 hours
Excerpt: 1 mm^3 of an acetonic solution of the active ingredients is applied to the ventral abdomen of houseflies (Musca domestica) under slight CO2 narcosis.

## CNC(=O)Oc1cccc2ccccc12 [I]
[1]; Plutella
  mortality at 0.1 %: 100%
[2]; 48 h
  mortality at 0.2 mg: 100%

## CNC(=O)Oc1ccccc1OC(CCl)OC (stereo not drawn) [Active ingredient 1, o-(α-methoxy-β-chloro)-ethoxyphenyl-N-methylcarbamate]
[3]
  LD50: 0.41 γ/fly
[1]; Plutella
  mortality at 0.05 %: 100%
[2]; 48 h
  mortality at 0.05 mg: 100%

## CCOC(CCl)Oc1ccccc1OC(=O)NC (stereo not drawn) [compound 6]
[1]; Plutella
  mortality at 0.02 %: 100%

## o-(α-2-chloroethoxy)-ethoxyphenyl-N-methylcarbamate [Example 2]
[3]
  LD50: 0.3 γ/fly

## CNC(=O)Oc1ccccc1OC(C)C [III]
[3]
  LD50: 1.5 γ/fly
[1]
  Mortality (in words): ineffective

## CNC(=O)Oc1cccc(C)c1 [II]
[3]; 10.0 γ/fly
  Effect on flies (LD50 column, in words): ineffective
[1]
  Mortality (in words): ineffective
[2]; 0.5 mg/breaker, after 48 hours
  mortality at 0.5 mg: 100%
